The test deals with BDF1 mice, P388 leukemia ip, median survival T/C. The test can be described thus: NCI In Vivo Anticancer Drug Screen. Data for tumor model P388 Leukemia (intraperitoneal) in B6D2F1 (BDF1) mice. As to conditions: endpoint: median survival time, higher = longer survival. An outline of the steps:
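Survival ratio, drug arm over vehicle arm, in mice with a transplanted tumour.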

Where [1] appears, read: dose: 100.0 mg/kg/injection, schedule: Q01DX009 (ip), vehicle: saline with Tween-80.
Setting [2] is: dose: 100.0 mg/kg/injection, schedule: Q04DX003 (ip), vehicle: saline with Tween-80.
The mark [3] stands for this setting: dose: 200.0 mg/kg/injection, schedule: Q01DX009 (ip), vehicle: saline with Tween-80.
The mark [4] stands for this setting: dose: 400.0 mg/kg/injection, schedule: Q01DX009 (ip), vehicle: saline with Tween-80.
Setting [5] is: dose: 400.0 mg/kg/injection, schedule: Q04DX003 (ip), vehicle: saline with Tween-80.
Setting [6] is: dose: 3.12 mg/kg/injection, schedule: Q01DX009 (ip), vehicle: saline.
The mark [7] stands for this setting: dose: 6.25 mg/kg/injection, schedule: Q01DX009 (ip), vehicle: saline.
Where [8] appears, read: dose: 12.5 mg/kg/injection, schedule: Q01DX009 (ip), vehicle: saline.
The mark [9] stands for this setting: dose: 100.0 mg/kg/injection, schedule: Q01DX009 (ip), vehicle: saline.
Setting [10] is: dose: 100.0 mg/kg/injection, schedule: Q04DX003 (ip), vehicle: saline.
The mark [11] stands for this setting: dose: 200.0 mg/kg/injection, schedule: Q04DX003 (ip), vehicle: saline with Tween-80.
The mark [12] stands for this setting: dose: 12.5 mg/kg/injection, schedule: Q01DX009 (ip), vehicle: saline with Tween-80.
The mark [13] stands for this setting: dose: 50.0 mg/kg/injection, schedule: Q01DX009 (ip), vehicle: saline with Tween-80.

Several values for one entry are separate records, joined by “and”; a condition that tells them apart may be missing. Equal values may be shown once. Inconclusive results and toxic doses are left out.

With `C[C@]12CC[C@H]3[C@@H](CCC4=CC(=O)CC[C@@H]43)[C@@H]1CC[C@@H]2OC(=O)CCc1ccccc1`, the T/C is, setting by setting: under setting [1], 100 % of control; under setting [2], 86 % of control; under setting [3], 100 % of control; under setting [4], 90 % of control; under setting [5], 86 % of control.
As to `CCC1CC[N-]CC1.CCC1CC[N-]CC1.[Cl][Pt+2]([Cl])([Cl])[Cl]`, the T/C is, setting by setting: under setting [6], 107 % of control; under setting [7], 110 % of control; under setting [8], 110 % of control.
As for `CC(=O)Nc1ccn(CC(=O)c2cccs2)c(=O)n1`, the T/C is 90 % of control under setting [9]; 86 % of control under setting [10]; 95 % of control (dose: 200.0 mg/kg/injection, schedule: Q01DX009 (ip), vehicle: saline); 86 % of control (dose: 200.0 mg/kg/injection, schedule: Q04DX003 (ip), vehicle: saline); 90 % of control (dose: 400.0 mg/kg/injection, schedule: Q01DX009 (ip), vehicle: saline); 100 % of control (dose: 400.0 mg/kg/injection, schedule: Q04DX003 (ip), vehicle: saline).
For `Cc1c(C)c([N+](=O)[O-])c(Br)c(C)c1[N+](=O)[O-]`, the T/C by setting is: under setting [1], 95 % of control; under setting [2], 104 % of control; (dose: 132.0 mg/kg/injection, schedule: Q04DX003 (ip), vehicle: saline with Tween-80) 109 % of control; under setting [3], 90 % of control; under setting [11], 118 % of control; (dose: 300.0 mg/kg/injection, schedule: Q04DX003 (ip), vehicle: saline with Tween-80) 100 % of control. Besides, the T/C runs as follows: under setting [4], 95 % of control; under setting [5], 122 % of control.
Take `CSc1nc([N+](=O)[O-])c2cnccn12`: the T/C was 103 % of control (dose: 5.0 mg/kg/injection, schedule: Q04DX003 (ip), vehicle: saline with Tween-80); 97 % of control (dose: 6.25 mg/kg/injection, schedule: Q01DX009 (ip), vehicle: saline with Tween-80); 99 % of control (dose: 10.0 mg/kg/injection, schedule: Q04DX003 (ip), vehicle: saline with Tween-80); 99 % of control under setting [12]; 101 % of control (dose: 12.5 mg/kg/injection, schedule: Q04DX003 (ip), vehicle: saline with Tween-80); 90 % of control (dose: 20.0 mg/kg/injection, schedule: Q04DX003 (ip), vehicle: saline with Tween-80). The T/C (dose: 25.0 mg/kg/injection, schedule: Q01DX009 (ip), vehicle: saline with Tween-80) was 96 % of control; the T/C (dose: 25.0 mg/kg/injection, schedule: Q04DX003 (ip), vehicle: saline with Tween-80) was 92 % of control; the T/C (dose: 40.0 mg/kg/injection, schedule: Q04DX003 (ip), vehicle: saline with Tween-80) was 114 % of control; the T/C (dose: 50.0 mg/kg/injection, schedule: Q04DX003 (ip), vehicle: saline with Tween-80) was 89 % of control.
On to `CC(Oc1ccccc1-c1ccccc1)C(=O)N(C)C` (stereo unspecified), for which the T/C is, setting by setting: under setting [12], 100 % of control; under setting [13], 121 % of control and 124 % of control; under setting [1], 97 % of control and 105 % of control; under setting [3], 112 % of control.
As to `CC1(C)CCC2(CC1)CC(=O)OC2=O`, the T/C runs as follows: under setting [2], 95 % of control; under setting [11], 87 % of control; under setting [5], 104 % of control.
`COC1(C(C)(C)C)C=C(C)/C(=C2\C(=O)Oc3c2cc(C)cc3C(C)(C)C)O1` (stereo unspecified): the T/C reads like this: under setting [13], 99 % of control; under setting [1], 92 % of control; under setting [3], 96 % of control.
Take `CC1(C)CCSC(/C=C/c2ccccc2)=N1`: the T/C runs as follows: (dose: 50.0 mg/kg/injection, schedule: Q01DX009 (ip), vehicle: Klucel (hydroxypropylcellulose) (HPC)) 103 % of control; (dose: 100.0 mg/kg/injection, schedule: Q01DX009 (ip), vehicle: Klucel (hydroxypropylcellulose) (HPC)) 121 % of control.
For the compound `COc1cc(C=Nc2ccc(C(=O)O)c(O)c2)ccc1N(CCCl)CCCl`, the T/C (dose: 3.6 mg/kg/injection, schedule: Q01DX009 (ip), vehicle: Klucel (hydroxypropylcellulose) (HPC)) was 196 % of control; the T/C (dose: 5.4 mg/kg/injection, schedule: Q01DX009 (ip), vehicle: Klucel (hydroxypropylcellulose) (HPC)) is 94 % of control; the T/C (dose: 8.2 mg/kg/injection, schedule: Q01DX009 (ip), vehicle: Klucel (hydroxypropylcellulose) (HPC)) was 245 % of control; the T/C (dose: 8.3 mg/kg/injection, schedule: Q01DX009 (ip), vehicle: Klucel (hydroxypropylcellulose) (HPC)) is 184 % of control; the T/C (dose: 12.5 mg/kg/injection, schedule: Q01DX009 (ip), vehicle: Klucel (hydroxypropylcellulose) (HPC)) was 230 % of control and 272 % of control and 213 % of control; the T/C (dose: 12.5 mg/kg/injection, schedule: Q04DX003 (ip), vehicle: Klucel (hydroxypropylcellulose) (HPC)) was 115 % of control. For the same compound, the T/C by setting is: (dose: 18.75 mg/kg/injection, schedule: Q01DX009 (ip), vehicle: Klucel (hydroxypropylcellulose) (HPC)) 96 % of control; (dose: 25.0 mg/kg/injection, schedule: Q04DX003 (ip), vehicle: Klucel (hydroxypropylcellulose) (HPC)) 115 % of control; (dose: 50.0 mg/kg/injection, schedule: Q04DX003 (ip), vehicle: Klucel (hydroxypropylcellulose) (HPC)) 100 % of control.
Take `COC1CC(C)(O)C(OC2CCC(OC(=O)C(C)C(O)c3ccc4c(c3)C(=O)C=C(C)C4=O)C(C)O2)C(C)O1` (stereo unspecified): the T/C by setting is: (dose: 1.25 mg/kg/injection, schedule: Q01DX009 (ip), vehicle: saline) 100 % of control and 103 % of control; (dose: 2.5 mg/kg/injection, schedule: Q01DX009 (ip), vehicle: saline) 94 % of control and 100 % of control; (dose: 5.0 mg/kg/injection, schedule: Q01DX009 (ip), vehicle: saline) 99 % of control; (dose: 10.0 mg/kg/injection, schedule: Q01DX009 (ip), vehicle: saline) 99 % of control.
Take `CCCC(C)C(C)CC` (stereo unspecified): the T/C by setting is: (dose: 6.25 mg/kg/injection, schedule: Q01DX001 (ip), vehicle: saline with Tween-80) 91 % of control; (dose: 12.5 mg/kg/injection, schedule: Q01DX001 (ip), vehicle: saline with Tween-80) 104 % of control; (dose: 25.0 mg/kg/injection, schedule: Q01DX001 (ip), vehicle: saline with Tween-80) 116 % of control.
As to `Cc1ccc2c3csc4ccccc4c-3nc2c1`, the T/C (dose: 1.56 mg/kg/injection, schedule: Q01DX009 (ip), vehicle: saline) is 113 % of control; the T/C under setting [6] is 113 % of control; the T/C under setting [7] is 113 % of control; the T/C under setting [8] was 100 % of control and 111 % of control; the T/C (dose: 18.0 mg/kg/injection, schedule: Q01DX009 (ip), vehicle: saline) is 118 % of control; the T/C (dose: 25.0 mg/kg/injection, schedule: Q01DX009 (ip), vehicle: saline) was 104 % of control.
On to `CC(=O)N/N=C\C1=CCC=C(Br)S1`, for which the T/C was 90 % of control under setting [13] and 104 % of control under setting [1].
On to `CCO/C=C1\SC(=S)N(c2ccco2)C1=O`, for which the T/C is, setting by setting: (dose: 5.56 mg/kg/injection, schedule: Q01DX009 (ip), vehicle: saline with Tween-80) 104 % of control; (dose: 8.33 mg/kg/injection, schedule: Q01DX009 (ip), vehicle: saline with Tween-80) 104 % of control; under setting [12], 108 % of control; (dose: 18.7 mg/kg/injection, schedule: Q01DX009 (ip), vehicle: saline with Tween-80) 116 % of control; (dose: 22.0 mg/kg/injection, schedule: Q01DX009 (ip), vehicle: saline with Tween-80) 150 % of control; (dose: 30.0 mg/kg/injection, schedule: Q01DX009 (ip), vehicle: saline) 116 % of control. In addition, the T/C by setting is: (dose: 44.0 mg/kg/injection, schedule: Q01DX009 (ip), vehicle: saline) 100 % of control; under setting [13], 100 % of control; (dose: 66.0 mg/kg/injection, schedule: Q01DX009 (ip), vehicle: saline) 116 % of control; under setting [9], 116 % of control.
Take `OCCN1CCN(CCCN2c3ccccc3CCc3ccccc32)CC1`: the T/C (dose: 25.0 mg/kg/injection, schedule: Q04DX003 (ip), vehicle: saline) is 103 % of control and 117 % of control; the T/C (dose: 50.0 mg/kg/injection, schedule: Q04DX003 (ip), vehicle: saline) was 100 % of control and 107 % of control; the T/C under setting [10] is 115 % of control and 116 % of control.

Values taken from PubChem BioAssay AID328 (DTP/NCI, 2004).
